Literature values in US11000540B1, “Treatment for reducing adverse events including chemotherapy discomfort and other conditions” (priority 2019, dated 2021).

Conditions: buffer pair acid/conjugate base

NCC(=O)O [Glycine/Glycine anion, Glycine]
pKa of Acid (or pH of 1:1 mixture): 9.60

O=S(=O)(O)CCNC1CCCCC1 [N-Cyclohexy1-2-aminoethanesuifonic acid]
pKa of Acid (or pH of 1:1 mixture): 9.3

Boric Acid [Boric Acid/Borate]
pKa of Acid (or pH of 1:1 mixture): 9.0

Tris(hydroxymethyl)aminomethane
pKa of Acid (or pH of 1:1 mixture): 8.2
